These results are taken from patent US20080234368A9, “Therapeutic compositions and methods of use” (Trustees of Dartmouth College, priority 1998, published 2008).

The subject of this assay is 3T3-L1 fibroblasts. In words: Adipogenic differentiation, induction of GPDH. The format is cell-based. On the procedure:
CDDO induces monocytic differentiation in the poorly differentiated LCDB acute myelogenous leukemia cell line, derived from a chemotherapy-resistant patient at the NCI Pediatric Oncology Branch. FIG. 11 illustrates LCDB cells seeded in RPMI 1640/2% FBS, either alone (11A), with 2.5 ng/ml TGF-β1 (11B), with 10^−8 M CDDO (11C), or with both TGF-β1 and CDDO (11D). After 48 h, cytospin slide preparations were made and stained for α-naphthyl acetate esterase activity (kit from Sigma). PC12 cells were cultured for 5 days in gridded dishes in DMEM/10% FBS and 5% horse serum (Smith et al., 1997), either alone (11E), with 100 ng/ml 7S NGF (11F), with 10^−6 M CDDO (11G), or with both NGF and CDDO (11H). […] Methods for quantitative image analysis of size of cells and neurites have been described (De 1a Torre et al., 1997). Control cells in FIG. 11E are approximately 10 μm in diameter. 3T3-L1 cells were grown to confluency in DMEM/5% calf serum, and then treated once with CDDO in DMEM/10% FBS (FIG. 12A) or with CDDO and/or LG100268 in DMEM/10% FBS (FIG. 12B). Every two days thereafter, medium was changed to DMEM/10% FBS, without added CDD0 or LG100268. Cells were harvested on day 8 (FIG. 12A) or day 6 (FIG. 12B), and GPDH was measured in lysates, using a standard assay for consumption of NADH at 340 nm (Wise and Green, 1979). […]

Take `CC1(C)CC[C@]2(C(=O)O)CC[C@]3(C)[C@H](C(=O)C=C4[C@@]5(C)C=C(C#N)C(=O)C(C)(C)[C@@H]5CC[C@]43C)[C@@H]2C1` [Compound 6, 2-cyano-3,12-dioxoolean-1,9-dien-28-oic acid]: the “adipogenic differentiation, combination with RXR-selective retinoid LG100268” value (CDDO with LG100268, day 6) is recorded as “acts synergistically”. The “adipogenic differentiation, induction of GPDH” value (doses as low as 10^−8 M, without insulin, dexamethasone, IBMX, day 8) is on record as “caused adipogenic differentiation”.
